In US20240425475A1, “COMPOUND BASED ON QUINAZOLINE-SUBSTITUTED GLUTARIMIDE SKELETON AND USE THEREOF” (GLUETACS THERAPEUTICS (SHANGHAI) CO., LTD., priority 2022, published 2024):

Tests used:
[1] = system: Human B-lymphoma cell: Ramos; test: Half inhibitory concentration (IC50) against tumor cells, CCK-8 cell viability; format: cell-based; conditions: 96 h treatment
Description: (§1) The tumor cells used herein were cultured in a cell culture medium listed in table 2 at 37° C. in an incubator with 5% CO2. Prior to experimentation, all cells used were correctly identified by STR profiling, and tested negative for mycoplasma through routine screenings. [table] Determination of Half Inhibitory Concentration (IC50) of the Compounds Against Tumor Cells: IC50 values of the compounds of the present disclosure (including the compounds in Table 1, and compounds of examples 1-104) were measured using the Meilun Cell Counting Kit-8 kit from Dalian Meilun Biotech Co., Ltd. Assay details are as follows: tumor cells were seeded in a 96-well plate at a density listed in Table 3. After 24 h, 100 μL of the inoculated cells were treated with 0.5 μl of the compounds of the present disclosure (including the compounds in Table 1, and compounds of examples 1-104) at 10 different successively decreasing concentrations (starting at the highest concentration of […]; 5-fold serial dilutions). After the cells were treated with the compounds of the present disclosure for a period of time, cell viability was measured according to the instructions provided with the CCK-8 kit. DMSO served as the negative control, and corresponding commercial immunomodulatory drug Avadomide (CC-122) was used as the positive control, both of which treated the cells using the same protocol as that of the compounds of the present disclosure. The growth inhibition of the compounds of the present disclosure on cells was plotted by Prism Graphpad software, and the IC50 values of the compounds of the present disclosure were calculated therefrom. [table] We tested the activities of the compounds of the present invention (including the compounds in Table 1 and Examples 1-104 compounds) in tumor cells through a dose-dependent manner. The cells were treated with the compounds of the present invention at 10 different successively decreasing concentrations (starting at the highest concentration of 10 μM; 5-fold serial dilutions) for 72 h or 96 h, and then the cell viability determination was performed in accordance with CCK-8 reagent operating instructions.

[2] = system: Human Burkitt's lymphoma cell line: Daudi; test: as above; format: cell-based; conditions: 96 h treatment
Description: as §1

[3] = system: Human cell line: Kasumi-1; test: as above; format: cell-based; conditions: Kasumi-1 cells, 72 h treatment
Description: as §1

[4] = system: Human dexamethasone-resistant multiple myeloma cell line: MM.1R; test: as above; format: cell-based; conditions: MM.1R cells, 72 h treatment
Description: as §1

[5] = system: Human diffuse large B-cell lymphoma cell line: TMD8; test: as above; format: cell-based; conditions: 96 h treatment
Description: as §1

[6] = biological target: human Cereblon WT GST-tagged protein (Homo sapiens (Human), UniProt Q96SW2); test: CRBN-binding affinity, CEREBLON BINDING kit (HTRF); conditions: HTRF inhibitory activity, binding to CRBN
Text: Determination of CRBN-Binding Affinity of Compounds
The CEREBLON BINDING kits (specification: 10,000 tests; product number: Catalog #64BDCRBNPEH; CISBIO company) was used to determine the CRBN binding ability of the compounds to be tested through a HTRF method (homogeneous time-resolved fluorescence). The specific methods are as follows: • 1. According to the instructions of the CEREBLON BINDING kits, the compounds to be tested of the present invention and lenalidomide were serially diluted using diluent #9 (1×) solution to obtain a final concentration of 2 μM for both the tested compounds and lenalidomide solution. • 2.2.5 μL of the above 2 μM of the tested compounds and lenalidomide solution, as well as the same volume of diluent #9 (1×) solution (solvent control group, Std0) were taken and added to each well of a 96-well plate, respectively. Then, 2.5 μL of (human Cereblon WT GST-tagged protein) solution was added to each well. Finally, 5 μL of the uniformly mixed thalidomide-Red reagent and GST Eu antibody working solution were added to each of the above wells. The final concentration of the tested compounds and lenalidomide in each well is 0.5 μM. • 3. The blank control wells were sequentially added with 2.5 μL of diluent #9 (1×) solution, 2.5 μL of PROTAC binding buffer, and 5 μL of uniformly mixed thalidomide-Red reagent and GST Eu antibody working solution. • 4. After sealing and incubating the solutions in the above wells at room temperature for 3 hours, the absorbance values at emission wavelengths of 620 nm and 665 nm were detected by the HTRF method using a Spark microplate reader (V3.1 SP1).
The corresponding CRBN binding inhibition rate was calculated using the following method: […]
Note: OD 665 nmcompound is the absorbance value of each well of the compounds to be tested of the present disclosure at an emission wavelength of 665 nm.
OD 620 nmcompound is the absorbance value of each well of the compounds to be tested of the present disclosure at an emission wavelength of 620 nm.
OD 665 nmcontrol is the absorbance value of the blank control well at an emission wavelength of 665 nm.
OD 620 nmcontrol is the absorbance value of the blank control well at an emission wavelength of 620 nm.
OD 665 nmstd0 is the absorbance value of the solvent control well at an emission wavelength of 665 nm.
OD 620 nmstd0 is the absorbance value of the solvent control well at an emission wavelength of 620 nm.

[7] = system: Human colon cancer cell: SW620; test: Half inhibitory concentration (IC50) against tumor cells, CCK-8 cell viability; format: cell-based; conditions: SW-620, 96 h treatment
Description: as §1

[8] = system: Human multiple myeloma cells: MM.1S; test: as above; format: cell-based; conditions: MM1.S, MM.1S cells, 72 h treatment
Description: as §1

Chain of human Cereblon WT GST-tagged protein (Q96SW2 whole entry): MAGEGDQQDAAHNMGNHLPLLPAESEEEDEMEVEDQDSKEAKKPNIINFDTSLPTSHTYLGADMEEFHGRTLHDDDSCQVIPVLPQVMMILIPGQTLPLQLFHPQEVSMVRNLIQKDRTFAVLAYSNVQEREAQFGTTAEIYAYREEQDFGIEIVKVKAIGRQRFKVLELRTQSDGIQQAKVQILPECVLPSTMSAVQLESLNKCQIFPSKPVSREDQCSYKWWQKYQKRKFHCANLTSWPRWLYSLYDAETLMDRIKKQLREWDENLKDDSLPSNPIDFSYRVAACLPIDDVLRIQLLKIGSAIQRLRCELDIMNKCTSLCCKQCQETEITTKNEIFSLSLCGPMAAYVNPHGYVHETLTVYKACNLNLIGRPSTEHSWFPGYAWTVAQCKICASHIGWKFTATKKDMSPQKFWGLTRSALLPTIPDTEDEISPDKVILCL

Row | Compound | IC50 [1] [nM] | IC50 [2] [nM] | IC50 [3] [nM] | IC50 [4] [nM] | IC50 [5] [nM] | IC50 [6] [nM] | IC50 [7] [nM] | IC50 [8] [nM]
1 | Cc1nc2cccc(SCCCN3CCN(CC45CC6CC(CC(C6)C4)C5)CC3)c2c(=O)n1C1CCC(=O)NC1=O (centres unmarked) [GT-03235, 3-(5-((3-(4-(((1s,3s)-adamantan-1-yl)methyl)piperazin-1-yl)propyl)thio)-2-methyl-4-oxoquinazolin-3(4H)-yl)piperidine-2,6-dione] | 398 |  |  |  |  | 2400 |  | 
2 | Cc1nc2cccc(SCCCN3CCN(CCC45CC6CC(CC(C6)C4)C5)CC3)c2c(=O)n1C1CCC(=O)NC1=O (centres unmarked) [GT-03306, 3-(5-((3-(4-(2-((3r,5r,7r)-adamantan-1-yl)ethyl)piperazin-1-yl)propyl)thio)-2-methyl-4-oxoquinazolin-3(4H)-yl)piperidine-2,6-dione] | 89.3 | 44.9 | 22.3 | 12.7 | 86.5 | 1570 | 18.6 | 29.3
3 | Cc1nc2cccc(NCCN3CCN(CCC45CC6CC(CC(C6)C4)C5)CC3)c2c(=O)n1C1CCC(=O)NC1=O (centres unmarked) [GT-03301, 3-(5-((2-(4-(2-((3r,5r,7r)-adamantan-1-yl)ethyl)piperazin-1-yl)ethyl)amino)-2-methyl-4-oxoquinazolin-3(4H)-yl)piperidine-2,6-dione] | 165 | 155 | 104 | 32.8 | 186 | 1720 | 35.8 | 79.6
4 | Cc1nc2cccc(N3CC(C)N(CCC45CC6CC(CC(C6)C4)C5)C(C)C3)c2c(=O)n1C1CCC(=O)NC1=O (centres unmarked) [GT-04246, 3-(5-(4-(2-((3r,5r,7r)-adamantan-1-yl)ethyl)-3,5-dimethylpiperazin-1-yl)-2-methyl-4-oxoquinazolin-3(4H)-yl)piperidine-2,6-dione] |  |  |  |  | 413 |  | 387 | 
5 | Cc1nc2cccc(N)c2c(=O)n1C1CCC(=O)NC1=O (centres unmarked) [CC-122, Avadomide, reference compound] | 1330 | 1650 | > 10000 | 464 | 890 |  | > 10000 | 46.9

Results, then the compound that gave them:

Row | IC50 [1] [nM] | IC50 [2] [nM] | IC50 [3] [nM] | IC50 [4] [nM] | IC50 [5] [nM] | IC50 [6] [nM] | IC50 [7] [nM] | IC50 [8] [nM] | Compound
6 | 652 | 546 | 694 | 204 |  |  |  |  | Cc1nc2cccc(SCCCN3CCN(C(c4ccc(Cl)cc4)c4ccc(Cl)cc4)CC3)c2c(=O)n1C1CCC(=O)NC1=O (centres unmarked) [GT-03697, 3-(5-((3-(4-(bis(4-chlorophenyl)methyl)piperazin-1-yl)propyl)thio)-2-methyl-4-oxoquinazolin-3(4H)-yl)piperidine-2,6-dione]
7 | 490 | 286 |  | 276 | 204 |  |  |  | Cc1nc2cccc(SCCCN3CCN(C(c4ccc(F)cc4)c4ccc(F)cc4)CC3)c2c(=O)n1C1CCC(=O)NC1=O (centres unmarked) [GT-03387, 3-(5-((3-(4-(bis(4-fluorophenyl)methyl)piperazin-1-yl)propyl)thio)-2-methyl-4-oxoquinazolin-3(4H)-yl)piperidine-2,6-dione]
